Patent US20040253665A1, “Novel peptide-producing enzyme, microbe producing the enzyme and method for dipeptide synthesis using them” (AJINOMOTO CO., INC., priority 2002, published 2004)
Read-outs that look alike come from different tables or passages of the source. Non-standard residues stand in square brackets, D forms with d. Residues, ends and D or L forms follow the SMILES beside them.

Experiments:
Type in all cases: biochemical
[1] = tested on: peptide-producing enzyme (Mono S fraction) from Empedobacter brevis strain FERM BP-8113; assay: Enzyme substrate specificity (1)-(10), (13), (14); design: key: +: those peptides for which production was confirmed but which were unable to be quantified due to the absence of a standard; a trace amount
Description: (§1) Ester specificity was examined in the case of using L-amino acid ester for the carboxy component. […] The amounts of L-Ala-L-Gln produced in this reaction are shown in Table 4 (HCl represents hydrochloride in Table 4). Peptide production was examined in the case of using L-alanine methyl ester for the carboxy component and using various L-amino acids for the amine component. […] (The “+” mark indicates those peptides for which production was confirmed but which were unable to be quantified due to the absence of a standard, while “tr” indicates a trace amount.) Peptide production was examined in the case of using various types of L-amino acid methyl esters for the carboxy component and using L-glutamine for the amine component. […] Peptide production was examined in the case of using various L-amino acid methyl esters for the carboxy component and various L-amino acids for the amine component. […] (The “tr” indicates a trace amount.) Furthermore, Tween-80 was added to the reaction system to a final concentration of 0.1% in the case of using L-Trp-OMe. (The “+” mark indicates those peptides for which production was confirmed but which were unable to be quantified due to the absence of a standard.) […] (The “tr” indicates a trace amount.) Peptide production was examined using various L-amino acid amides for the carboxy component, and various L-amino acids for the amine component. […] Peptide production was examined in the case of using various L-alanine methyl esters for the carboxy component and C-protected L-amino acids for the amine component. […] Peptide production was examined in the case of using various amino acid methyl esters for the carboxy component and methylamine for the amine component. […] Peptide production was examined in the case of using β-amino acid ester for the carboxy component or β-amino acid for the amine component. […] (The “tr” indicates a trace amount.) Oligopeptide production was examined in the case of using L-amino acid ester for the carboxy component and peptide for the amine component. […] Substrate specificity was additionally assessed using the same enzyme fraction as that used in Example 5. […] (A “+” mark indicates those for which production was confirmed but which were unable to be quantified due to the absence of a standard, while “tr” indicates a trace amount). Substrate specificity with respect to oligopeptide production was assessed using the same enzyme fraction as Example 26. […] (A “+” mark indicates those for which production was confirmed but which were unable to be quantified due to the absence of a standard, while “tr” indicates a trace amount). It should be noted that hydrochlorides were used for all of the carboxy components.

[2] = tested on: enzyme (SP-Sepharose HP fraction) derived from Sphingobacterium sp. strain FERM BP-8124; design: key to Produced peptide (mM): +: those peptides for which production was confirmed but which were unable to be quantified due to the absence of a standard; a trace amount; details: 0.33 units enzyme, pH 9.0, 25° C., 1.5 hours
Method: Substrate specificity was examined for enzyme derived from Sphingobacterium sp. strain FERM BP-8124 (Depositary institution: National Institute for Advanced Industrial Science and Technology, International Patent Organism Depositary, Address of depositary institution: Central. 6, 1-1-1 Higashi, Tsukuba City, Ibaraki Prefecture, Japan, International deposit date: Jul. 22, 2002). 100 μl of 100 mM borate buffer (pH 9.0) containing the various carboxy components at a final concentration of 100 mM and the various amine components at a final concentration of 150 mM shown in Tables 15-1 to 15-4, the SP-Sepharose HP fraction enzyme purified in Example 22 (addition of 0.33 units in the reaction liquid) and 10 mM EDTA were allowed to react at 25° C. for 1.5 hours. […] In addition, hydrochlorides were used for all carboxy components.
Substrate specificity with respect to oligopeptide production was examined for enzyme derived from Sphingobacterium sp. strain FERM BP-8124 (Depositary institution: National Institute for Advanced Industrial Science and Technology,.International Patent Organism Depositary, Address of depositary institution: Chuo Dai-6, 1-1 Higashi 1-Chome, Tsukuba-shi, Ibaraki-ken, Japan, International deposit date: Jul. 22, 2002). A 100 μl aliquot of 100 mM borate buffer (pH 9.0) containing the various carboxy components at a final concentration of 100 mM and the various amine components at a final concentration of 150 mM shown in Table 16, the SP-Sepharose HP fraction enzyme purified in Example 22 (addition of 0.33 units in the reaction liquid) and 10 mM EDTA were allowed to react for 1.5 hours at 25° C. Furthermore, hydrochloride salts were used for all carboxy components.

[3] = tested on: peptide-producing enzyme (Mono S fraction) from Empedobacter brevis strain FERM BP-8113; assay: Enzyme substrate specificity (1)-(10), (13), (14); details: pH 9.0, 25° C., 3 hours
Description: as §1

[4] = L-amino acid methyl ester hydrochloride 100 mM, 150 mM L-glutamine, pH 9.0, 25° C., 3 hours
[5] = Table 15-2, carboxy component 100 mM, L-Gln 150 mM
[6] = L-amino acid methyl ester hydrochloride 100 mM, 150 mM L-glutamine
[7] = Table 15-1, carboxy component 100 mM, amine component 150 mM
[8] = 100 mM L-alanine methyl ester hydrochloride, L-amino acid 150 mM
[9] = Table 15-3, carboxy component 100 mM, amine component 150 mM
[10] = L-amino acid methyl ester hydrochloride 100 mM, L-amino acid 150 mM
[11] = Table 15-4, amides or methylamine as components, 100 mM / 150 mM
[12] = amino acid methyl ester 100 mM, methylamine 150 mM
[13] = Table 16, oligopeptide production, carboxy component 100 mM, amine component 150 mM
[14] = L-amino acid ester 100 mM, amino acid or peptide amine component 150 mM

Compound: CN[C@@H](C)C(=O)N[C@@H](Cc1ccccc1)C(=O)O [H-N-Me-Ala-Phe-OH]
- Produced peptide (mM) ([1]; carboxy component 100 mM, amine component 150 mM, 0.1 unit enzyme, 25° C., reaction time 3 hr): tr

Compound: NC(=O)CC[C@H](NC(=O)CC[C@H](N)C(=O)O)C(=O)O [γ-L-Glu-L-Gln]
- Produced peptide (mM) [1, 4]: +

Compound: C[C@@H](N)C(=O)N[C@H](CCC(N)=O)C(=O)O [D-Ala-D-Gln] (H-[dA]-[dQ]-OH)
- Produced peptide (mM) ([1]; L or D amino acid methyl ester hydrochloride 100 mM, L or D amino acid 150 mM, pH 9.0, 25° C., 3 hours): tr

Compound: NC(=O)CC[C@H](NC(=O)[C@@H](N)CS)C(=O)O [L-CySH-L-Gln] (H-Cys-Gln-OH)
- Produced peptide (mM) [1, 4]: +

Compound: NC(=O)CC[C@H](NC(=O)[C@@H](N)CCC(=O)O)C(=O)O [α-L-Glu-L-Gln] (H-Glu-Gln-OH)
- Produced peptide (mM) [1, 4]: +

Compound: CC(C)[C@H](N)C(=O)N[C@@H](CCC(N)=O)C(=O)O [L-Val-L-Gln] (H-Val-Gln-OH)
- Produced peptide [2, 5]: 8.2 mM
- Produced peptide [3, 6]: 15.4 mM

Compound: NC(=O)CC[C@H](NC(=O)C[C@H](N)C(=O)O)C(=O)O [β-L-Asp-L-Gln]
- Produced peptide (mM) [1, 4]: tr

Compound: CC[C@H](C)[C@H](NC(=O)[C@H](C)N)C(=O)O [L-Ala-L-Ile] (H-Ala-Ile-OH)
- Produced peptide [2, 7]: 24.7 mM
- Produced peptide [3, 8]: 33.9 mM

Compound: C[C@H](NC(=O)CCN)C(=O)O [β-Ala-L-α-Ala]
- Produced peptide (mM) ([1]; β-amino acid ester as carboxy component or β-amino acid as amine component, 100 mM / 150 mM, pH 9.0, 25° C., 3 hours): tr

Compound: C[C@@H](O)[C@H](N)C(=O)N[C@@H](CCC(N)=O)C(=O)O [L-Thr-L-Gln] (H-Thr-Gln-OH)
- Produced peptide [2, 5]: 36.1 mM
- Produced peptide ([3]; L-amino acid amide hydrochloride 100 mM as carboxy component, L-amino acid 150 mM): 0.3 mM
- Produced peptide [3, 6]: 81.9 mM

Compound: NC(=O)CC[C@H](NC(=O)[C@@H](N)CCC(N)=O)C(=O)O [L-Gln-L-Gln] (H-Gln-Gln-OH)
- Produced peptide [2, 5]: 0.1 mM
- Produced peptide [3, 6]: 0.3 mM

Compound: C[C@@H](N)C(=O)N[C@H](CO)C(=O)O [D-Ala-D-Ser] (H-[dA]-[dS]-OH)
- Produced peptide [2, 7]: 5.5 mM
- Produced peptide ([3]; L or D amino acid methyl ester hydrochloride 100 mM, L or D amino acid 150 mM): 0.2 mM

Compound: CC(C)[C@H](N)C(=O)N[C@@H](CO)C(=O)O [L-Val-L-Ser] (H-Val-Ser-OH)
- Produced peptide [2, 9]: 31.9 mM
- Produced peptide [3, 10]: 30.8 mM

Compound: CNC(=O)CN [Gly-methylamine]
- Produced peptide [2, 11]: 1.0 mM
- Produced peptide [3, 12]: 1.1 mM

Compound: NCC(=O)N[C@@H](CCCN=C(N)N)C(=O)O [Gly-L-Arg] (H-Gly-Arg-OH)
- Produced peptide [2, 9]: 17.9 mM
- Produced peptide [3, 10]: 25.5 mM

Compound: C[C@H](N)C(=O)N[C@@H](CC(N)=O)C(=O)O [L-Ala-L-Asn] (H-Ala-Asn-OH)
- Produced peptide [2, 7]: 52.3 mM
- Produced peptide [3, 8]: 65.5 mM

Compound: CNC(=O)C(C)N [L-Ala-methylamine]
- Produced peptide [2, 11]: 0.6 mM
- Produced peptide [3, 12]: 0.3 mM

Compound: C[C@H](N)C(=O)N[C@@H](CCCCN)C(=O)O [L-Ala-L-Lys] (H-Ala-Lys-OH)
- Produced peptide [2, 7]: 71.2 mM
- Produced peptide [3, 8]: 71.8 mM

Compound: L-Thr-Gly-Gly
- Produced peptide [2, 13]: 8.4 mM
- Produced peptide [3, 14]: 83.0 mM

Compound: L-Ala-L-Phe-Gly
- Produced peptide [2, 13]: 34.0 mM
- Produced peptide [3, 14]: 43.7 mM

Compound: NC(N)=NCCC[C@H](N)C(=O)N[C@@H](Cc1ccccc1)C(=O)O [L-Arg-L-Phe]
- Produced peptide (mM) [2, 9]: tr
- Produced peptide [3, 10]: 1.9 mM

Compound: C[C@H](N)C(=O)N[C@@H](C)C(N)=O [L-Ala-L-Ala-NH2] (H-Ala-Ala-NH2)
- Produced peptide [2, 11]: 9.2 mM
- Produced peptide ([3]; L-Ala-OMe 100 mM, L-amino acid amide 150 mM as amine component): 8.3 mM

Compound: Gly-L-Ala-L-Tyr
- Produced peptide [2, 13]: 0.6 mM
- Produced peptide [3, 14]: 1.7 mM

Compound: CSCC[C@H](N)C(=O)N[C@@H](CO)C(=O)O [L-Met-L-Ser] (H-Met-Ser-OH)
- Produced peptide [2, 9]: 25.3 mM
- Produced peptide [3, 10]: 12.8 mM

Compound: L-Ala-L-His-L-Ala
- Produced peptide [2, 13]: 58.0 mM
- Produced peptide [3, 14]: 55.9 mM

Compound: CC(C)[C@H](NC(=O)[C@@H](N)[C@@H](C)O)C(=O)O [L-Thr-L-Val] (H-Thr-Val-OH)
- Produced peptide [2, 9]: 1.3 mM
- Produced peptide [3, 10]: 0.7 mM

Compound: L-Ala-L-Ala-L-Ala-L-Ala
- Produced peptide [2, 13]: 30.1 mM
- Produced peptide [3, 14]: 44.5 mM

Compound: NC(=O)CC[C@H](NC(=O)[C@@H]1CCCN1)C(=O)O [L-Pro-L-Gln] (H-Pro-Gln-OH)
- Produced peptide [2, 5]: 1.8 mM
- Produced peptide [3, 6]: 2.2 mM

Compound: C[C@H](NC(=O)[C@@H](N)[C@@H](C)O)C(=O)O [L-Thr-L-Ala] (H-Thr-Ala-OH)
- Produced peptide [2, 9]: 5.8 mM
- Produced peptide [3, 10]: 9.4 mM

Compound: CNC(=O)[C@@H](N)[C@@H](C)O [L-Thr-methylamine]
- Produced peptide [2, 11]: 0.3 mM
- Produced peptide [3, 12]: 0.2 mM

Compound: C[C@H](N)C(=O)N[C@@H](CC(=O)O)C(=O)O [L-Ala-L-Asp] (H-Ala-Asp-OH)
- Produced peptide [2, 7]: 2.3 mM
- Produced peptide [3, 8]: 2.1 mM

Compound: L-Ala-L-Ala-L-Ala
- Produced peptide [2, 13]: 41.1 mM
- Produced peptide [3, 14]: 57.5 mM

Compound: C[C@H](N)C(=O)N[C@@H](Cc1c[nH]c2ccccc12)C(=O)O [L-Ala-L-Trp] (H-Ala-Trp-OH)
- Produced peptide [2, 7]: 46.0 mM
- Produced peptide [3, 8]: 53.9 mM

Compound: L-Ala-L-Leu-L-Ala
- Produced peptide [2, 13]: 40.7 mM
- Produced peptide [3, 14]: 48.3 mM

Compound: L-Ala-Gly-L-Ala
- Produced peptide [2, 13]: 35.1 mM
- Produced peptide [3, 14]: 25.9 mM
